Values of other authors in patent publication US20210386733A1, “LYSINE-SPECIFIC HISTONE DEMETHYLASE INHIBITORS FOR THE TREATMENT OF MYELOPROLIFERATIVE NEOPLASMS” (Imago Biosciences, Inc., priority 2019, published 2021).

Tested on: primary myelofibrosis patients
Conditions: 50 to 100 mg/day in combination with prednisone; cited from earlier work

## O=C1CCC(N2C(=O)c3ccccc3C2=O)C(=O)N1 (centres unmarked) [Thalidomide]
  patients with improved anemia and thrombocytopenia: approximately 60%
  patients with reduced spleen size: approximately 20%
